US6939946B2, “Ring modified cyclic peptide analogs” (Eli Lilly and Company, priority 1998, dated 2005)
Like-named read-outs stand apart in the source and are kept apart here. Numbered stars: 1 amine (or outer) side, 2 acyl side, 3 side chain; on linkers, the order of the positions; unused ones are H or OH. Bridge positions count the residues as written; N and C are the ends. Square brackets hold non-standard residues; d marks the D form. Peptide text beside a SMILES is read from it. * marks the point of attachment. ξ: configuration not given here. pTerphenylCO(4''-OnC5H11) = CCCCCOc1ccc(-c2ccc(-c3ccc(C(=O)*)cc3)cc2)cc1; Pro(3S-OH,4S-Me) = C[C@H]1CN[C@H](C(=O)O)[C@H]1O; hTyr(3R-OH) = N[C@H](C(=O)O)[C@H](O)Cc1ccc(O)cc1; X1 = CN1CCC(NC[C@H](N[*:1])C(=O)[*:2])CC1; Hyp = O=C(O)[C@@H]1C[C@@H](O)CN1; Thr(3ξ) = CC(O)[C@H](N)C(=O)O; Orn = NCCC[C@H](N)C(=O)O; dDap = NC[C@@H](N)C(=O)O; Dap = NC[C@H](N)C(=O)O

How the values were obtained:
C. albicans = details: in vitro
C. parapsilosis = details: in vitro
A. fumigatus = details: in vitro
Histoplasma capsulatum = details: in vitro
Cryptococcus neoformans = details: in vitro
[1] = the molecule shown is the open-chain precursor, amide bond, H2/Pd-C (EtOH/AcOH), then Et3N, Et2O, 2 steps

| Compound | Minimal Inhibitory Concentration MIC C. albicans (C. albicans) [µg/mL] | Minimal Inhibitory Concentration MIC C. parapsilosis (C. parapsilosis) [µg/mL] | Minimal Inhibitory Concentration MIC A. fumigatus (A. fumigatus) [µg/mL] | Minimal Inhibitory Concentration MIC Histoplasma capsulatum (Histoplasma capsulatum) [µg/mL] | Minimal Inhibitory Concentration MIC Cryptococcus neoformans (Cryptococcus neoformans) [µg/mL] | ring closure, isolated yield ([1]; 22-membered ring, 1.1 mM) [%] | ring closure, isolated yield ([1]; 21-membered ring, 2.1 mM) [%] |
| --- | --- | --- | --- | --- | --- | --- | --- |
| C[C@@H]1[C@H](O)[C@@H](C)/C=C/C=C/C=C/C=C/C=C/C=C/C=C/[C@H](O[C@@H]2O[C@H](C)[C@@H](O)[C@H](N)[C@@H]2O)C[C@@H]2O[C@](O)(C[C@@H](O)C[C@@H](O)[C@H](O)CC[C@@H](O)C[C@@H](O)CC(=O)O[C@H]1C)C[C@H](O)[C@H]2C(=O)O [Ampho B, Amphotericin B, reference compound] | 0.078 | 0.038 | 0.312 | 0.039 | 0.039 |  |  |
| CCCCCOc1ccc(-c2ccc(-c3ccc(C(=O)N[C@H]4CCCNC(=O)[C@@H]5[C@@H](O)[C@@H](C)CN5C(=O)[C@H](C(C)O)NC(=O)[C@H]([C@H](O)Cc5ccc(O)cc5)NC(=O)[C@@H]5C[C@@H](O)CN5C(=O)[C@H](C(C)C)NC4=O)cc3)cc2)cc1 (stereo partly drawn) [Compound E4-6] ({pTerphenylCO(4''-OnC5H11)}-[Orn]V[Hyp][hTyr(3R-OH)][Thr(3ξ)][Pro(3S-OH,4S-Me)]; lactam 1-C) | 1.25 | >20 | >20 | >20 |  |  |  |
| CCCCCOc1ccc(-c2ccc(-c3ccc(C(=O)N[C@H]4CCCNC(=O)[C@@H]5[C@@H](O)[C@@H](C)CN5C(=O)[C@H](C(C)O)NC(=O)[C@H]([C@H](O)Cc5ccc(O)cc5)NC(=O)[C@@H]5C[C@@H](O)CN5C(=O)[C@H](Cc5ccc(O)cc5)NC4=O)cc3)cc2)cc1 (stereo partly drawn) [Compound E5-7] ({pTerphenylCO(4''-OnC5H11)}-[Orn]Y[Hyp][hTyr(3R-OH)][Thr(3ξ)][Pro(3S-OH,4S-Me)]; lactam 1-C) | >20 | >20 | >20 | >20 |  |  |  |
| CCCCCOc1ccc(-c2ccc(-c3ccc(C(=O)N[C@H]4CNC(=N)NC(=O)[C@@H]5[C@@H](O)[C@@H](C)CN5C(=O)[C@H](C(C)O)NC(=O)[C@H]([C@H](O)Cc5ccc(O)cc5)NC(=O)[C@@H]5C[C@@H](O)CN5C(=O)[C@H](C(C)O)NC4=O)cc3)cc2)cc1 (stereo partly shown) [Compound E6-6] | 0.078 | >20 | >20 | >20 |  |  |  |
| CCCCCOc1ccc(-c2ccc(-c3ccc(C(=O)N[C@H]4CNC(=O)[C@H](CN)NC(=O)[C@@H]5[C@@H](O)[C@@H](C)CN5C(=O)[C@H](C(C)O)NC(=O)[C@H]([C@H](O)Cc5ccc(O)cc5)NC(=O)[C@@H]5C[C@@H](O)CN5C(=O)[C@H](C(C)O)NC4=O)cc3)cc2)cc1 (stereo partly drawn) [Compound E8-8] ({pTerphenylCO(4''-OnC5H11)}-[Dap][Thr(3ξ)][Hyp][hTyr(3R-OH)][Thr(3ξ)][Pro(3S-OH,4S-Me)][Dap]; lactam 1-C) | 0.078 | 0.625 | 5.0 | 0.312 | >20 |  |  |
| CCCCCOc1ccc(-c2ccc(-c3ccc(C(=O)N[C@H]4CNC(=O)[C@H](CNC5CCN(C)CC5)NC(=O)[C@@H]5[C@@H](O)[C@@H](C)CN5C(=O)[C@H](C(C)O)NC(=O)[C@H]([C@H](O)Cc5ccc(O)cc5)NC(=O)[C@@H]5C[C@@H](O)CN5C(=O)[C@H](C(C)O)NC4=O)cc3)cc2)cc1 (stereo partly drawn) [Compound E8-9] ({pTerphenylCO(4''-OnC5H11)}-[Dap][Thr(3ξ)][Hyp][hTyr(3R-OH)][Thr(3ξ)][Pro(3S-OH,4S-Me)][X1]; lactam 1-C) | 0.156 | 5.0 | 5.0 | 0.625 | >20 |  |  |
| CCCCCOc1ccc(-c2ccc(-c3ccc(C(=O)N[C@H]4CCNNC(=O)[C@@H]5[C@@H](O)[C@@H](C)CN5C(=O)[C@H](C(C)O)NC(=O)[C@H]([C@H](O)Cc5ccc(O)cc5)NC(=O)[C@@H]5C[C@@H](O)CN5C(=O)[C@H](C(C)O)NC4=O)cc3)cc2)cc1 (stereo partly shown) [E2-10(b)] | 0.01 | 0.156 | 0.156 | 0.156 |  |  |  |
| CCCCCOc1ccc(-c2ccc(-c3ccc(C(=O)N[C@H]4CCN(CC)NC(=O)[C@@H]5[C@@H](O)[C@@H](C)CN5C(=O)[C@H](C(C)O)NC(=O)[C@H]([C@H](O)Cc5ccc(O)cc5)NC(=O)[C@@H]5C[C@@H](O)CN5C(=O)[C@H](C(C)O)NC4=O)cc3)cc2)cc1 (stereo partly shown) [E2-11(b)] | 0.001 | 0.156 | 0.312 | 0.02 |  |  |  |
| CCCCCOc1ccc(-c2ccc(-c3ccc(C(=O)N[C@H]4CCN(CCC)NC(=O)[C@@H]5[C@@H](O)[C@@H](C)CN5C(=O)[C@H](C(C)O)NC(=O)[C@H]([C@H](O)Cc5ccc(O)cc5)NC(=O)[C@@H]5C[C@@H](O)CN5C(=O)[C@H](C(C)O)NC4=O)cc3)cc2)cc1 (stereo partly shown) [E2-11(c)] | 0.312 | 1.25 | 0.156 | 0.312 |  |  |  |
| CCCCCOc1ccc(-c2ccc(-c3ccc(C(=O)N[C@@H]4CNC(=O)CNC(=O)[C@@H]5[C@@H](O)[C@@H](C)CN5C(=O)[C@H](C(C)O)NC(=O)[C@H]([C@H](O)Cc5ccc(O)cc5)NC(=O)[C@@H]5C[C@@H](O)CN5C(=O)[C@H](C(C)O)NC4=O)cc3)cc2)cc1 (stereo partly drawn) [E7-6(a)] ({pTerphenylCO(4''-OnC5H11)}-[dDap][Thr(3ξ)][Hyp][hTyr(3R-OH)][Thr(3ξ)][Pro(3S-OH,4S-Me)]G; lactam 1-C) | >20 | >20 | >20 | >20 | >20 |  |  |
| CCCCCOc1ccc(-c2ccc(-c3ccc(C(=O)N[C@H]4CNC(=O)CNC(=O)[C@@H]5[C@@H](O)[C@@H](C)CN5C(=O)[C@H](C(C)O)NC(=O)[C@H]([C@H](O)Cc5ccc(O)cc5)NC(=O)[C@@H]5C[C@@H](O)CN5C(=O)[C@H](C(C)O)NC4=O)cc3)cc2)cc1 (stereo partly drawn) [E7-6(b)] ({pTerphenylCO(4''-OnC5H11)}-[Dap][Thr(3ξ)][Hyp][hTyr(3R-OH)][Thr(3ξ)][Pro(3S-OH,4S-Me)]G; lactam 1-C) | 0.312 | >20 | 5.0 | 1.25 | >20 |  |  |
| CCCCCOc1ccc(-c2ccc(-c3ccc(C(=O)NC[C@H]4NC(=O)CNC(=O)[C@@H]5[C@@H](O)[C@@H](C)CN5C(=O)[C@H](C(C)O)NC(=O)[C@H]([C@H](O)Cc5ccc(O)cc5)NC(=O)[C@@H]5C[C@@H](O)CN5C(=O)[C@H](C(C)O)NC4=O)cc3)cc2)cc1 (stereo partly drawn) [E7-14(a)] (cyclo(G[dDap](pTerphenylCO(4''-OnC5H11))[Thr(3ξ)][Hyp][hTyr(3R-OH)][Thr(3ξ)][Pro(3S-OH,4S-Me)])) | 0.312 | >20 | >20 | 0.312 | >20 |  |  |
| CCCCCOc1ccc(-c2ccc(-c3ccc(C(=O)NC[C@@H]4NC(=O)CNC(=O)[C@@H]5[C@@H](O)[C@@H](C)CN5C(=O)[C@H](C(C)O)NC(=O)[C@H]([C@H](O)Cc5ccc(O)cc5)NC(=O)[C@@H]5C[C@@H](O)CN5C(=O)[C@H](C(C)O)NC4=O)cc3)cc2)cc1 (stereo partly drawn) [E7-14(b)] (cyclo([Dap](pTerphenylCO(4''-OnC5H11))[Thr(3ξ)][Hyp][hTyr(3R-OH)][Thr(3ξ)][Pro(3S-OH,4S-Me)]G)) | 0.156 | >20 | >20 | 0.078 | >20 |  |  |
| Boc-Cys(SO2; S-CH2CH2NH2)-Thr(TBS)-Hyp(TBS)-hTyr(3-OTBS,4'-OTBS)-Thr(TBS)-Pro(3-OTBS,4-Me)-N(Boc)2? |  |  |  |  |  | 67 |  |
| Boc-Orn-Val-Hyp(TBS)-hTyr(3-OTBS,4'-OTBS)-Thr(TBS)-Pro(3-OTBS,4-Me)-N(Boc)2? |  |  |  |  |  |  | 43 |
